From ChEMBL document CHEMBL6087427, “Discovery of novel cyclopentane carboxylic acids as potent and selective inhibitors of NaV1.7” (Bioorg Med Chem Lett, 2025)
In brackets after ≈: the same amount, converted by molar mass. Blank lines part the entries; values can stand above or below the compound they belong to.

Key:
[1] = biological target: T1, Sodium channel protein type 9 subunit alpha (Homo sapiens, UniProt Q15858); assay: Displacement of [3H]GX-545 from Nav1.7 VSD4 (unknown origin)
Target sequence in this assay (Q15858 whole entry): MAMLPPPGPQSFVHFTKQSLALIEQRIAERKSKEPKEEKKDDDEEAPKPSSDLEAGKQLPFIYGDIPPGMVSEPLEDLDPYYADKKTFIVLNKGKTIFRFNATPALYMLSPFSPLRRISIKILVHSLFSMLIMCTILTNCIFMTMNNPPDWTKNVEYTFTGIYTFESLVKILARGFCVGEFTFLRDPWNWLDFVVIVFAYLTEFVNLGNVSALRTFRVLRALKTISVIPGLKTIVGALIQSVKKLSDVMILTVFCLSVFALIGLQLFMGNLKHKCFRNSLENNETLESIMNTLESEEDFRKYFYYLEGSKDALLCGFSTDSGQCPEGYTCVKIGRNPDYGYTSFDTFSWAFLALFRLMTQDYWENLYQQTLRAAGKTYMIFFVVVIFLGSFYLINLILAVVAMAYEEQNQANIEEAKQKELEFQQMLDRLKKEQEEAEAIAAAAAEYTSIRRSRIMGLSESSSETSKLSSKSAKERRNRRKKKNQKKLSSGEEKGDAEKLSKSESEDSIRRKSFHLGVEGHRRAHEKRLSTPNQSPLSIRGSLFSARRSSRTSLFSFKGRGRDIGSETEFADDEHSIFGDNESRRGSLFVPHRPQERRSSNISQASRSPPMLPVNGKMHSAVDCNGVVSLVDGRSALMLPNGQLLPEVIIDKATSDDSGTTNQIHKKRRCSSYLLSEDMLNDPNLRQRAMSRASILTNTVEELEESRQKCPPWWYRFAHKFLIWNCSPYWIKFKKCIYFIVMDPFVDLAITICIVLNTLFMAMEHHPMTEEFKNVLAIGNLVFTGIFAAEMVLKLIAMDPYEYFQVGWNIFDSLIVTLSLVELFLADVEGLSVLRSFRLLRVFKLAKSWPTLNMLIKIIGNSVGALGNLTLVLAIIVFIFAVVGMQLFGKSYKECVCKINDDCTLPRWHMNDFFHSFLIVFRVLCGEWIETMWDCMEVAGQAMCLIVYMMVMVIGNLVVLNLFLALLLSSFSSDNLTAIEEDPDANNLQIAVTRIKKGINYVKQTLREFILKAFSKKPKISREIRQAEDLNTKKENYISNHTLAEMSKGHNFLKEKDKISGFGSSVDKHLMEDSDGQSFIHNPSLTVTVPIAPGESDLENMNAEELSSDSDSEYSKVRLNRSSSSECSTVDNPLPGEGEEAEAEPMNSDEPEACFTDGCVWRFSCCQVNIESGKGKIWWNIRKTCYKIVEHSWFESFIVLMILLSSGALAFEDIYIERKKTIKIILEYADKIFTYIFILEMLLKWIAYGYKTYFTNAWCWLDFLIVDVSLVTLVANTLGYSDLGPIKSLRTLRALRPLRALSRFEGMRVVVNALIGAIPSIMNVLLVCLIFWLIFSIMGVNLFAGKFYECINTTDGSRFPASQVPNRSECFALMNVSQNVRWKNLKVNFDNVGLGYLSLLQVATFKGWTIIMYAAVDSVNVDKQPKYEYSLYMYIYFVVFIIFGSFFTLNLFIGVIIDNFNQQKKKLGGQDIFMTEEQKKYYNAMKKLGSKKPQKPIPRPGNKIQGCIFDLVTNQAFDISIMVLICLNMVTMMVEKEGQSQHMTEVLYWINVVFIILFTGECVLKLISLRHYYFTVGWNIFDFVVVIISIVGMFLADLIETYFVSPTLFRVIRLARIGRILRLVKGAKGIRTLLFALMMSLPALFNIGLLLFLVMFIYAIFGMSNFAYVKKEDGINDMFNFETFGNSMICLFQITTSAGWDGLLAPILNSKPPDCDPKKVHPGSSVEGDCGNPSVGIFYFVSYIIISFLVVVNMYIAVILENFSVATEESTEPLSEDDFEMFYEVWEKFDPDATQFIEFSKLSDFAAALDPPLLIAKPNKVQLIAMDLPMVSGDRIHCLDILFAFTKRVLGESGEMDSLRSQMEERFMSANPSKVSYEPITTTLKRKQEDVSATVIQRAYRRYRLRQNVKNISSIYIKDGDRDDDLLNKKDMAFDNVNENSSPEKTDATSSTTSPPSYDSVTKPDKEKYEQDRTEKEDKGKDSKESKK

[2] = biological target: T1, Sodium channel protein type 9 subunit alpha; assay: Inhibition of human Nav1.7 by patch clamp electrophysiology
Target sequence in this assay (Q15858 whole entry): as above

[3] = biological target: Sodium channel protein type 5 subunit alpha (Homo sapiens, UniProt Q14524); assay: Inhibition of human Nav1.5 by patch clamp electrophysiology
Sequence of Sodium channel protein type 5 subunit alpha (Q14524 whole entry): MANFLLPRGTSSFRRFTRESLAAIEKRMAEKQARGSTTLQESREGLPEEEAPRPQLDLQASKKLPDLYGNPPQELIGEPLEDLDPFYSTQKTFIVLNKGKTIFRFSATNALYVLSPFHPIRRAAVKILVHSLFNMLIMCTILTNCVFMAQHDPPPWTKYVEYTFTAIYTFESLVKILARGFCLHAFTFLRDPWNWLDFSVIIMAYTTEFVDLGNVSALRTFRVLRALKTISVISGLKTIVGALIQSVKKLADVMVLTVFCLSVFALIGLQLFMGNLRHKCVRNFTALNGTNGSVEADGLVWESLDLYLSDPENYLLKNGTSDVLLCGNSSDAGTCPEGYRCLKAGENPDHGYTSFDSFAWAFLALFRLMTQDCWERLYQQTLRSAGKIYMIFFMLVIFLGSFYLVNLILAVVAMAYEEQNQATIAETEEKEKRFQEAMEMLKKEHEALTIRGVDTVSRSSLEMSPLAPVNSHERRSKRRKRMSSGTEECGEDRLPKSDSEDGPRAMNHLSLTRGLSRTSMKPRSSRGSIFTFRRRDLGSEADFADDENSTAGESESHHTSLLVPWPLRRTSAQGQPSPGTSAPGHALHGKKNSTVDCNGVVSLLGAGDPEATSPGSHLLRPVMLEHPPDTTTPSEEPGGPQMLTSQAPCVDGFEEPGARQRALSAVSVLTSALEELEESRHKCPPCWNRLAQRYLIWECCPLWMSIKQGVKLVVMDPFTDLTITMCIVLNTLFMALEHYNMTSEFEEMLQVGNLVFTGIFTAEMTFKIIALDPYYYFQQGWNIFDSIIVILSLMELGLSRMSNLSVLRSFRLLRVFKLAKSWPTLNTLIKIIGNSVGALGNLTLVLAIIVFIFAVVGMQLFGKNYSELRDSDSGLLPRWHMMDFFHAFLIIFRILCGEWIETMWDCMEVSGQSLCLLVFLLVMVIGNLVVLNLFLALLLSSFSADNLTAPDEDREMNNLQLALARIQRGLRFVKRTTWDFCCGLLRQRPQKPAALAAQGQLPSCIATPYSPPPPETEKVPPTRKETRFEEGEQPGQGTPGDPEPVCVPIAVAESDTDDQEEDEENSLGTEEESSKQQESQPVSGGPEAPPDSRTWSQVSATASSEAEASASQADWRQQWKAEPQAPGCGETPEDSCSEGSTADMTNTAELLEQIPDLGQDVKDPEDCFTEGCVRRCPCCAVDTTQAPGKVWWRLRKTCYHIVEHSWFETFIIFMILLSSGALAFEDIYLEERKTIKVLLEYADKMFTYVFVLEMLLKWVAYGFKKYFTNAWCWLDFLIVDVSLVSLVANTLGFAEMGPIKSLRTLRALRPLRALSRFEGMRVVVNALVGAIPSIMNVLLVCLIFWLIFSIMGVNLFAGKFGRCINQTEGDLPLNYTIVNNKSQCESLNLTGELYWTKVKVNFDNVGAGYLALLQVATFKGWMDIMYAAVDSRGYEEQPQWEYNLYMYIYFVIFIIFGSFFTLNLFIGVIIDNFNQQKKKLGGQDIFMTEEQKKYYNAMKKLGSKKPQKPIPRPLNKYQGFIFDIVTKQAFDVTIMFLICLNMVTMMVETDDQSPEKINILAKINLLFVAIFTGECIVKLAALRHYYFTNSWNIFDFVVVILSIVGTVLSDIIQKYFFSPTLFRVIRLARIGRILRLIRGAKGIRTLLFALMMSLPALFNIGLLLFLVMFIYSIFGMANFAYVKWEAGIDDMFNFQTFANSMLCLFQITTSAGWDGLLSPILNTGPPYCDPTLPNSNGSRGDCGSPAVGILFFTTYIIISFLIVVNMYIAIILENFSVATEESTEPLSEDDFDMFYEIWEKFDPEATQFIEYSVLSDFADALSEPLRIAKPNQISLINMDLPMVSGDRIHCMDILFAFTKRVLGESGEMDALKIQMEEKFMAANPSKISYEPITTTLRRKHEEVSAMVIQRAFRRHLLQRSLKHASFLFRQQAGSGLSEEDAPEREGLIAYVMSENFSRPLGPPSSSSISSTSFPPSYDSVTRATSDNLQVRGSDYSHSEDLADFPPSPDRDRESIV

[4] = biological target: T1, Sodium channel protein type 9 subunit alpha; assay: Inhibition of human Nav1.7 assessed as fold shift in IC50 in presence of BSA by sodium flux assay
Target sequence in this assay (Q15858 whole entry, looked up): as the sequence (Q15858 whole entry) above

[5] = Metabolic stability in human liver microsomes assessed as hepatic clearance; assay type: ADME, Microsome
[6] = Metabolic stability in mouse liver microsomes assessed as hepatic clearance; assay type: ADME, Microsome
[7] = AUC in mouse at 3 mg/kg, po; assay type: ADME, organism-based; conditions: in vivo
[8] = biological target: T1, Sodium channel protein type 9 subunit alpha; assay: Inhibition of human Nav1.7 by sodium flux assay
Target sequence in this assay (Q15858 whole entry): as above

[9] = biological target: Sodium channel protein type 1 subunit alpha (Homo sapiens, UniProt P35498); assay: Inhibition of human Nav1.1 by patch clamp electrophysiology
[10] = biological target: Sodium channel protein type 2 subunit alpha (Homo sapiens, UniProt Q99250); assay: Inhibition of human Nav1.2 by patch clamp electrophysiology
[11] = biological target: Sodium channel protein type 8 subunit alpha (Homo sapiens, UniProt Q9UQD0); assay: Inhibition of human Nav1.6 by patch clamp electrophysiology
[12] = Metabolic stability in human hepatocytes assessed as hepatic clearance; assay type: ADME, cell-based, Hepatocyte
[13] = Metabolic stability in mouse hepatocytes assessed as hepatic clearance; assay type: ADME, cell-based, Hepatocyte
[14] = Apparent permeability across apical to basolateral side in MDCK cells; assay type: ADME, cell-based, Canis lupus familiaris; conditions: dog
MDR1 (P-gp) = assay: Efflux ratio in MDCK-MDR1 cells; assay type: ADME, cell-based, Canis lupus familiaris; conditions: dog
BCRP = assay: Efflux ratio in MDCK-BCRP cells; assay type: ADME, cell-based, Canis lupus familiaris; conditions: dog
[15] = Plasma protein binding in human; assay type: ADME, cell-free; conditions: read-out: PPB
[16] = Plasma protein binding in mouse; assay type: ADME, cell-free; conditions: read-out: PPB
Cytochrome P450 1A2 = biological target: T2, Cytochrome P450 1A2 (Homo sapiens, UniProt P05177); assay: Inhibition of CYP1A2 (unknown origin); assay type: ADME
T2 sequence (P05177 whole entry): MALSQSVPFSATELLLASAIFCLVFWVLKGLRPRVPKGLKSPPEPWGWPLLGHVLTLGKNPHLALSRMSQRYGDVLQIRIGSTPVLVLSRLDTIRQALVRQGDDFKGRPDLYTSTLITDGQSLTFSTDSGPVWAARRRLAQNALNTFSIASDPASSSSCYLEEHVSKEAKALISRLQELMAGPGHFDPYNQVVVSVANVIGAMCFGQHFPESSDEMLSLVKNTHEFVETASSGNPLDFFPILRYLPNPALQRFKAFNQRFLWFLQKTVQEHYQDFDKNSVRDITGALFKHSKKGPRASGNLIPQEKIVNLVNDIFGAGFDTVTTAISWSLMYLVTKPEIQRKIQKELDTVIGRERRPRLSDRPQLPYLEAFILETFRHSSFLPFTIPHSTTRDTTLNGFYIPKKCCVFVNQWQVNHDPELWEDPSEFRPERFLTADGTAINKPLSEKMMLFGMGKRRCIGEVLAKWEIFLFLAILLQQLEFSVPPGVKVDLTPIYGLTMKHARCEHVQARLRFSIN

Cytochrome P450 2C19 = Cytochrome P450 2C19 (Homo sapiens, UniProt P33261); assay: Inhibition of CYP2C19 (unknown origin); assay type: ADME
Cytochrome P450 2C9 = Cytochrome P450 2C9 (Homo sapiens, UniProt P11712); assay: Inhibition of CYP2C9 (unknown origin); assay type: ADME
Sequence of Cytochrome P450 2C9 (P11712 whole entry): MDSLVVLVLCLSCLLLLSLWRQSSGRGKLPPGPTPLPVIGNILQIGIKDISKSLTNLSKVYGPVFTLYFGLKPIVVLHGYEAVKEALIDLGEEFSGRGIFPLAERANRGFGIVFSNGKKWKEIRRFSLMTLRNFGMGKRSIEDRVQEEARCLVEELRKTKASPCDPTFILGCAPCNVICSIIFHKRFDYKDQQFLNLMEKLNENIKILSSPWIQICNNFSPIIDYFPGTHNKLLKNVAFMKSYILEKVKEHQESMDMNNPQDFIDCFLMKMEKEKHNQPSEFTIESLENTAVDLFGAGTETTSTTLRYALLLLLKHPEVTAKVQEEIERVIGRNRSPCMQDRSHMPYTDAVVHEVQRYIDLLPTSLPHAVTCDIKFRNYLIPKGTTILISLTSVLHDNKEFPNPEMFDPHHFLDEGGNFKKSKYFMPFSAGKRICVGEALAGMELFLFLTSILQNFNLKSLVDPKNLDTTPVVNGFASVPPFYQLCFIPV

Cytochrome P450 2D6 = Cytochrome P450 2D6 (Homo sapiens, UniProt P10635); assay: Inhibition of CYP2D6 (unknown origin); assay type: ADME
Sequence of Cytochrome P450 2D6 (P10635 whole entry): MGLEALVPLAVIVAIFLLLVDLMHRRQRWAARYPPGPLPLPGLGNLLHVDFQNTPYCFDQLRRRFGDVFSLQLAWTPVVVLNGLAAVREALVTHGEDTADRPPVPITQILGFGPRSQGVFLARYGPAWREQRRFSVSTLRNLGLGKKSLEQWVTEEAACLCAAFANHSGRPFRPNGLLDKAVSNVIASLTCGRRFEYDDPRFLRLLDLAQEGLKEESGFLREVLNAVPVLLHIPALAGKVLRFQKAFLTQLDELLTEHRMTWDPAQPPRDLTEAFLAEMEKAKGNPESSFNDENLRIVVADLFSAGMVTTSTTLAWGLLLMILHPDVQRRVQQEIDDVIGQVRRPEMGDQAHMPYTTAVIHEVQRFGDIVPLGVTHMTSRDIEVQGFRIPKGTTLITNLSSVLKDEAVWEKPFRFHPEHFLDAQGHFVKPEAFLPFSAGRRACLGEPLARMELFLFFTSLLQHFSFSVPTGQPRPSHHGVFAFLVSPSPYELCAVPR

Cytochrome P450 3A4 = Cytochrome P450 3A4 (Homo sapiens, UniProt P08684); assay: Inhibition of CYP3A4 (unknown origin); assay type: ADME
[17] = Kinetic solubility of compound; assay type: physicochemical; conditions: read-out: Kinetic_solubility
[18] = Volume of distribution at steady state in mouse at 1 mg/kg, iv; assay type: ADME, organism-based; conditions: in vivo, read-out: Vdss
[19] = Half life in mouse at 1 mg/kg, iv; assay type: ADME, organism-based; conditions: in vivo
[20] = Cmax in mouse at 3 mg/kg, po; assay type: ADME, organism-based; conditions: in vivo
[21] = Half life in mouse at 3 mg/kg, po; assay type: ADME, organism-based; conditions: in vivo
[22] = Oral bioavailability in mouse at 3 mg/kg; assay type: ADME, organism-based; conditions: in vivo
Mus musculus [23] = assay: Analgesic activity in aconitine-induced nociception in IEM transgenic FVB mouse model assessed as reduction in pain response at 3 mg/kg, po pretreated for 2 hrs followed by aconitine administration measured for 30 mins post-aconitine dose relative to control; assay type: functional; design: scale not given: the % may be the effect or the level left; conditions: time 2.5 hrs
Mus musculus [24] = assay: Analgesic activity in aconitine-induced nociception in IEM transgenic FVB mouse model assessed as reduction in pain response at 10 mg/kg, po pretreated for 2 hrs followed by aconitine administration measured for 30 mins post-aconitine dose relative to control; assay type: functional; design: scale not given: the % may be the effect or the level left; conditions: time 2.5 hrs
Mus musculus [25] = assay: Analgesic activity in aconitine-induced nociception in IEM transgenic FVB mouse model assessed as reduction in pain response at 30 mg/kg, po pretreated for 2 hrs followed by aconitine administration measured for 30 mins post-aconitine dose relative to control; assay type: functional; design: scale not given: the % may be the effect or the level left; conditions: time 2.5 hrs
Mus musculus [26] = assay: Analgesic activity in aconitine-induced nociception in IEM transgenic FVB mouse model assessed as reduction in pain response at 100 mg/kg, po pretreated for 2 hrs followed by aconitine administration measured for 30 mins post-aconitine dose relative to control; assay type: functional; design: scale not given: the % may be the effect or the level left; conditions: time 2.5 hrs
[27] = Drug concentration in plasma of aconitine-induced nociception in IEM transgenic FVB mouse model at 3 mg/kg, po pretreated for 2 hrs followed by aconitine administration measured for 30 mins post-aconitine dose; assay type: ADME, organism-based
[28] = Drug concentration in plasma of aconitine-induced nociception in IEM transgenic FVB mouse model at 10 mg/kg, po pretreated for 2 hrs followed by aconitine administration measured for 30 mins post-aconitine dose; assay type: ADME, organism-based
[29] = Drug concentration in plasma of aconitine-induced nociception in IEM transgenic FVB mouse model at 30 mg/kg, po pretreated for 2 hrs followed by aconitine administration measured for 30 mins post-aconitine dose; assay type: ADME, organism-based
[30] = Drug concentration in plasma of aconitine-induced nociception in IEM transgenic FVB mouse model at 100 mg/kg, po pretreated for 2 hrs followed by aconitine administration measured for 30 mins post-aconitine dose; assay type: ADME, organism-based
Mus musculus [31] = assay: Analgesic activity in aconitine-induced nociception in IEM transgenic FVB mouse model assessed as inhibition of nociceptive behaviour at 3 to 100 mg/kg, po pretreated for 2 hrs followed by aconitine administration measured for 30 mins post-aconitine dose; assay type: functional, organism-based
[32] = Drug concentration in brain of aconitine-induced nociception in IEM transgenic FVB mouse model at EC50 pretreated orally for 2 hrs followed by aconitine administration measured for 30 mins post-aconitine dose; assay type: ADME, tissue-based; conditions: route po, read-out: Ct
[33] = Ratio of drug concentration in brain to plasma of aconitine-induced nociception in IEM transgenic FVB mouse model at EC50 pretreated orally for 2 hrs followed by aconitine administration measured for 30 mins post-aconitine dose; assay type: ADME; conditions: route po, read-out: BPR

SMILES: O=C(O)[C@@H]1[C@@H](F)CCN1C(=O)c1cc(C2CC2)c(OCC23CC4CC(CC(C4)C2)C3)cc1F
Ki [1]: 60 nM

SMILES: CC1(C)CCN(C(=O)c2cc(C3CC3)c(OCC34CC5CC(CC(C5)C3)C4)cc2F)[C@@H]1C(=O)O
Ki [1]: 58 nM

SMILES: O=C(O)[C@@H]1[C@H](O)CCN1C(=O)c1cc(C2CC2)c(OCC23CC4CC(CC(C4)C2)C3)cc1F
Ki [1]: 160 nM

SMILES: O=C(O)[C@@H]1C[C@H](F)CN1C(=O)c1cc(C2CC2)c(OCC23CC4CC(CC(C4)C2)C3)cc1F
Ki [1]: 560 nM

SMILES: O=C(O)[C@@H]1[C@@H](O)CCN1C(=O)c1cc(C2CC2)c(OCC23CC4CC(CC(C4)C2)C3)cc1F
Ki [1]: 600 nM

Compounds with a lower Ki [1], results first:

Ki [1]: 6.4 nM
IC50 [2]: 10 nM
fold change (FC) [4]: 1
CLhep predicted [5]: 13 mL/min/kg
CLhep predicted [6]: 64 mL/min/kg
AUC ([7]; read-out: AUC): 0.16 µM·h
SMILES: C[C@@H]1[C@@H](C(=O)O)N(C(=O)c2cc(C3CC3)c(OCC34CC5CC(CC(C5)C3)C4)cc2F)C[C@@H]1F
IC50 [3]: 5800 nM

Ki [1]: 8.6 nM
IC50 [2]: 12 nM
IC50 [8]: 250 nM
fold change (FC) [4]: 1.5
CLhep predicted [5]: 17 mL/min/kg
CLhep predicted [6]: 61 mL/min/kg
AUC ([7]; read-out: AUC): 0.53 µM·h
SMILES: O=C(c1cc(C2CC2)c(OCC23CC4CC(CC(C4)C2)C3)cc1F)C1CCC[C@H]1C(=O)O (stereo not given in full)
IC50 [3]: 2600 nM

Ki [1]: 4.9 nM
IC50 [2]: 13 nM
IC50 [8]: 99 nM
CLhep predicted [5]: 11 mL/min/kg
CLhep predicted [6]: 51 mL/min/kg
AUC ([7]; po, 3 mg/kg): 9.6 µM·h
IC50 [9]: 25 nM
IC50 [10]: 15 nM
IC50 [11]: 300 nM
CLhep predicted [12]: 6.2 mL/min/kg
CLhep predicted [13]: 21 mL/min/kg
Papp A→B [14]: 19 ×10⁻⁶ cm/s
efflux ratio (MDR1 (P-gp)): 2.8
efflux ratio (BCRP): 0.92
fraction unbound [15]: 0.0001
fraction unbound [16]: 0.0001
IC50 (Cytochrome P450 1A2): > 10000 nM
IC50 (Cytochrome P450 2C19): > 10000 nM
IC50 (Cytochrome P450 2C9): > 10000 nM
IC50 (Cytochrome P450 2D6): > 10000 nM
IC50 (Cytochrome P450 3A4): > 10000 nM
solubility kinetic [17]: 58 µM (≈ 33.7 µg/mL)
Vd [18]: 0.94 L/kg
half-life [19]: 1.2 h
Cmax [20]: 1.5 µM
half-life [21]: 3.6 h
F [22]: 45%
concentration at 2.5 h [27]: 1.77 µM
concentration at 2.5 h [28]: 7.29 µM
concentration at 2.5 h [29]: 20.8 µM
concentration at 2.5 h [30]: 50.9 µM
EC50 (Mus musculus [31]): 2720 nM
concentration at 2.5 h [32]: 0.33 µM
Kp at 2.5 h [33]: ~0.12
SMILES: C[C@@H]1[C@@H](C(=O)O)[C@H](C(=O)c2cc(C3CC3)c(OCC3CCN(Cc4c(Cl)cccc4Cl)CC3)cc2F)C[C@@H]1F
IC50 [3]: 5900 nM
Activity (Mus musculus [23]): 35%
Activity (Mus musculus [24]): 81%
Activity (Mus musculus [25]): 96%
Activity (Mus musculus [26]): 100%

Ki [1]: 35 nM
SMILES: O=C(O)[C@@H]1CC(F)(F)CN1C(=O)c1cc(C2CC2)c(OCC23CC4CC(CC(C4)C2)C3)cc1F

Ki [1]: 10 nM
SMILES: C[C@H]1CCN(C(=O)c2cc(C3CC3)c(OCC34CC5CC(CC(C5)C3)C4)cc2F)[C@@H]1C(=O)O

Ki [1]: 7 nM
SMILES: O=C(O)[C@@H]1C[C@@H](F)CN1C(=O)c1cc(C2CC2)c(OCC23CC4CC(CC(C4)C2)C3)cc1F

Ki [1]: 36 nM
SMILES: CO[C@@H]1CN(C(=O)c2cc(C3CC3)c(OCC34CC5CC(CC(C5)C3)C4)cc2F)[C@H](C(=O)O)[C@H]1C

Ki [1]: 20 nM
IC50 [2]: 33 nM
IC50 [8]: 180 nM
fold change (FC) [4]: 2.2
CLhep predicted [5]: 11 mL/min/kg
CLhep predicted [6]: 61 mL/min/kg
AUC ([7]; read-out: AUC): 0.079 µM·h
SMILES: O=C(O)[C@@H]1CCCN1C(=O)c1cc(C2CC2)c(OCC23CC4CC(CC(C4)C2)C3)cc1F
